Results as given in US20230192705A1, “SHP2 INHIBITORS, COMPOSITIONS AND USES THEREOF” (Betta Pharmaceuticals Co., Ltd, priority 2020, published 2023).
Like-named read-outs stand apart in the source and are kept apart here.

How the values were obtained:
[1] = tested on: leukemia MV-4-11 cell; assay: Cell proliferation assay (CellTiter-Glo), MV-4-11; format: cell-based; settings: Homo sapiens, MV4-11, MV-4-11, 120 hrs, CTG, read-out: Compound on MV-4-11 cell IC50
Method: (§1) The effects of the compounds on the proliferation of leukemia MV-4-11 cell and lung cancer NCI-H358 cell were evaluated by in vitro cell test. The assay used in this study was the CELL TITER-GLO (CTG) luminescence assay, which can detect the number of living cells by quantitative determination of ATP. Because ATP is involved in a variety of enzymatic reactions in vivo and is an indicator of the metabolism of living cells, its content can directly reflects the number and state of cells. During the experiment, Celltiter-Glo™ reagent was added to the cell culture medium to measure the luminescence value. The luminescence value was proportional to the amount of ATP, which in turn was positively correlated with the number of living cells. Therefore, ATP content can be used to detect cell viability.
A bottle of MV-4-11 cells in logarithmic growth phase was taken, the cells were collected, centrifuged, resuspend, counted, and then inoculated into 96-well Microplate (Corning #3917), with 4000 cells inoculated in each well. The plates were placed in an incubator at 37° C. and 5% CO2 for 24 hrs culture, and the compounds of the invention were added for conducting.
(§2) An appropriate amount of the compound of the invention was taken for cell treatment, and the final concentration of the compound from high to low was 1000 nM, 333.3 nM, 111.1 nM, 37.04 nM, 12.35 nM, 4.115 nM, 1.372 nm, 0.4572 nM, 0.1524 nM, 0 nM, respectively. The orifice plate was cultured in an incubator at 37° C. and 5% CO2. Only adding medium without adding cell hole was set as blank group. Compound concentration of 0 nM group was zero control group.
After cultured for 120 hrs, MV-4-11 cells were added with 50 μL CellTiter-Glo® Luminescent cell viability assay solution in each well, gently shaken for 2 mins, and incubated at room temperature for 10 mins. The detection values of each well were read on the multi-functional microplate reader.
(§3) The inhibition rate is calculated according to the luminous value reading,
(§4) Inhibition rate %=(1−(administration group value−blank group value)/(control group value−blank group value)*100
(§5) The log (inhibitor) vs. response variable slope of GraphPad Prism was used to fit the dose-response curve and calculate the IC50 of compounds inhibiting cell proliferation.

[2] = In vitro metabolic stability in rat liver microsome; format: in vitro ADME; settings: rat liver microsomes
Method: 1900 mg MgCl2 was dissolved into a final volume of 400 mL ultra-pure water.
17.42 g K2HPO4 and 13.65 g KH2PO4 were dissolved into a final volume of 1000 mL ultra-pure water, respectively. K2HPO4 and KH2PO4 were mixed to prepare 100 mM potassium phosphate (PBS) buffer. The pH value of the final solution was adjusted to pH 7.30±0.10.
Cold ACN (including 10 ng/mL Labetalol and 10 ng/mL Glibenclamid) was stored at 4° C.
Working Solution Preparation:
Verapamil (positive control) and test compound stock solution were diluted into a concentration of 50 μM and 200 μM respectively, using MeOH/ACN/H2O solution (1:1:2, v/v/v).
1) 40 μL MgCl2 and 306 μL PBS were added to 96 plate wells (blank, compound wells, compounds without NADPH wells)
2) 4 μL compound working solution was added to above wells (blank: 4 μL PBS buffer) (Note: the volume of DMSO in final incubation system ≤0.5%)
3) 10 μL microsomes (20 mg/mL) was added in each well. The mixture was warmed up for 10 minutes at 37.0° C.
4) 40 μL 10 mM NADPH working solution was added to start reaction. The total volume was 400 μL.
5) Aliquots of 50 μL samples were taken from the reaction solution at 0, 5, 15, 45 min. The reaction solutions were stopped by the addition of 400 μL stop solution.
6) The sampling plates were shaked for approx. 5 min.
7) Samples were centrifuged at 3200 rcf for 10 min. then transferred 50 μL to a new plate dilute with 200 μL H2O for LC/MS/MS analysis.
Use equation of first order kinetics to calculate t1/2 and CL: […]
Where k represents elimination constant, which is calculated from a log linear plot of % Remaining versus time. t1/2 represents the half-life. Cprotein is the concentration of liver microsomes.

[3] = tested on: lung cancer NCI-H358 cell; assay: Cell proliferation assay (CellTiter-Glo), NCI-H358; format: cell-based; settings: Homo sapiens, NCI-H358, 96 hrs, CTG, read-out: Compound on NCI-H358 cell IC50
Method: as §1
A bottle of NCI-H358 cells in logarithmic growth phase was taken, the cells were digested and resuspend, counted, and then the cell density was adjusted. After that, the cells were inoculated into a 96-well Ultra-Low Attachment Microplate (Corning #3474), 2000 cells were inoculated in each well, and the well plate was placed in an incubator at 37° C. and 5% CO2, and the compounds of the invention were added for conducting.
as §2
NCI-H358 cells were cultured for 96 hrs, then 50 μL CellTiter-Glo® Luminescent cell viability assay solution was added to each well, and the cells were gently shaken for 2 mins, and incubated at room temperature for 10 mins. The cell reaction system was transferred to 96-well Microplate (Corning #3917). The detection values of each well were read on the multi-functional microplate reader.
as §3, §4, §5

Structure (SMILES) | IC50 ([1]; class symbols) | CLint Rat [2] | IC50 ([3]; numeric values) | IC50 ([1]; numeric values) | IC50 ([3]; class symbols)
Cn1c(N2CCC3(CC2)Cc2ccccc2[C@H]3N)nc2[nH]nc(C3(c4ccccc4)CC3)c2c1=O [Example 1] | ≤ 0.02 µM | 34.7 μL/min/mg proteins |  |  | 
N[C@@H]1c2ccccc2CC12CCN(c1nc3[nH]nc(C4(c5cccc(F)c5)CC4)c3c(=O)[nH]1)CC2 [Example 6, (S)-6-(1-amino-1,3-dihydrospiro[indene-2,4′-piperidin]-1′-yl)-3-(1-(3-fluorophenyl)cyclopropyl)-1,5-dihydro-4H-pyrazolo[3,4-d]pyrimidin-4-one] |  | 11.2 μL/min/mg proteins | 0.0086 µM | 0.0065 µM | 
N[C@@H]1c2ccccc2CC12CCN(c1nc3[nH]nc(C4(c5cccc(C(F)(F)F)c5)CC4)c3c(=O)[nH]1)CC2 [Example 8, (S)-6-(1-amino-1,3-dihydrospiro[indene-2,4′-piperidin]-1′-yl)-3-(1-(3-(trifluoromethyl)plienyl)cyclo-propyl)-1,5-dihydro-4H-pyrazolo[3,4-d]pyrimidin-4-one] |  | 11.6 μL/min/mg proteins | 0.0017 µM | 0.0061 µM | 
N[C@@H]1c2ccccc2CC12CCN(c1nc3[nH]nc(C4(c5ccccc5)CC4(F)F)c3c(=O)[nH]1)CC2 (stereo partly drawn) [Example 9, 6-((S)-1-amino-1,3-dihydrospiro[indene-2,4′-piperidin]-1′-yl)-3-(2,2-difluoro-1-phenylcyclopropyl)-1,5-dihydro-4H-pyrazolo[3,4-d]pyrimidin-4-one] | ≤ 0.02 µM | 10.5 μL/min/mg proteins |  |  | ≤ 0.02 µM
N[C@@H]1c2ccccc2CC12CCN(c1nc3[nH]nc(C4(c5ccc(F)cc5)CC4)c3c(=O)[nH]1)CC2 [Example 11, (S)-6-(1-amino-1,3-dihydrospiro[indene-2,4′-piperidin]-1′-yl)-3-(1-(4-fluorophenyl)cyclopropyl)-1,5-dihydro-4H-pyrazolo[3,4-d]pyrimidin-4-one] |  | 6.6 μL/min/mg proteins | 0.0021 µM | 0.0012 µM | 
N[C@@H]1c2ccccc2CC12CCN(c1nc3[nH]nc(C4(c5ccc6c(c5)OC(F)(F)O6)CC4)c3c(=O)[nH]1)CC2 [Example 13, (S)-6-(1-amino-1,3-dihydrospiro[indene-2,4′-piperidin]-1′-yl)-3-(1-(2,2-difluorobenzo[d][1,3]dioxol-5-yl)cyclopropyl)-1,5-dihydro-4H-pyrazolo[3,4-d]pyrimidin-4-one] | ≤ 0.02 µM | 14.3 μL/min/mg proteins |  |  | ≤ 0.02 µM
N[C@@H]1c2ccccc2CC12CCN(c1nc3[nH]nc(C4(c5ccc(Cl)c(Cl)c5)CC4)c3c(=O)[nH]1)CC2 [Example 21, (S)-6-(1-amino-1,3-dihydrospiro[indene-2,4′-piperidin]-1′-yl)-3-(1-(3,4-dichlorophenyl)cyclopropyl)-1,5-dihydro-4H-pyrazolo[3,4-d]pyrimidin-4-one] | ≤ 0.02 µM | 3.8 μL/min/mg proteins |  |  | ≤ 0.02 µM
N[C@@H]1c2ccccc2CC12CCN(c1nc3[nH]nc(C4(c5cccs5)CC4)c3c(=O)[nH]1)CC2 [Example 24, (S)-6-(1-amino-1,3-dihydrospiro[indene-2,4′-piperidin]-1′-yl)-3-(1-(thiophen-2-yl)cyclopropyl)-1,5-dihydro-4H-pyrazolo[3,4-d]pyrimidin-4-one] | ≤ 0.02 µM |  |  |  | ≤ 0.02 µM
N[C@@H]1c2ccccc2CC12CCN(c1nc3[nH]nc(C4(c5ccccc5)CC4)c3c(=O)[nH]1)CC2 [Example 33] | ≤ 0.02 µM | 17.4 μL/min/mg proteins |  |  | ≤ 0.02 µM
N[C@@H]1c2ccccc2CC12CCN(c1nc3[nH]nc(C4(c5ccc6c(c5)OCO6)CC4)c3c(=O)[nH]1)CC2 [Example 34, (S)-6-(1-amino-1,3-dihydrospiro[indene-2,4′-piperidin]-1′-yl)-3-(1-(benzo[d][1,3]dioxol-5-yl)cyclopropyl)-1,5-dihydro-4H-pyrazolo[3,4-d]pyrimidin-4-one] | ≤ 0.02 µM | 19.1 μL/min/mg proteins |  |  | ≤ 0.02 µM
N[C@@H]1c2ccccc2CC12CCN(c1nc3[nH]nc(C4(c5ccccc5)COC4)c3c(=O)[nH]1)CC2 [Example 96, (S)-6-(1-amino-1,3-dihydrospiro[indene-2,4′-piperidin]-1′-yl)-3-(3-phenyloxetan-3-yl)-1,5-dihydro-4H-pyrazolo[3,4-d]pyrimidin-4-one] | 0.02 to 0.06 µM |  |  |  | > 0.06 µM
N[C@@H]1c2ccccc2CC12CCN(c1nc3[nH]nc(C4(c5ccc(C(F)(F)F)cc5)CC4)c3c(=O)[nH]1)CC2 [Example 228, (S)-6-(1-amino-1,3-dihydrospiro[indene-2,4′-piperidin]-1′-yl)-3-(1-(4-(trifluoromethyl)phenyl)cyclo-propyl)-1,5-dihydro-4H-pyrazolo[3,4-d]pyrimidin-4-one] | 0.02 to 0.06 µM | 12.4 μL/min/mg proteins |  |  | 0.02 to 0.06 µM
Nc1ccc(C2(c3n[nH]c4nc(N5CCC6(CC5)Cc5ccccc5[C@H]6N)[nH]c(=O)c34)CC2)cc1 [Example 230, (S)-6-(1-amino-1,3-dihydrospiro[indene-2,4′-piperidin]-1′-yl)-3-(1-(4-aminophenyl)cyclopropyl)-1,5-dihydro-4H-pyrazolo[3,4-d]pyrimidin-4-one] |  | 3.2 μL/min/mg proteins |  |  | 
N[C@@H]1c2ccccc2CC12CCN(c1nc3[nH]nc(C4(c5ccc(O)cc5)CC4)c3c(=O)[nH]1)CC2 [Example 234, (S)-6-(1-amino-1,3-dihydrospiro[indene-2,4′-piperidin]-1′-yl)-3-(1-(4-hydroxyphenyl)cyclopropyl)-1,5-dihydro-4H-pyrazolo[3,4-d]pyrimidin-4-one] |  | 6.6 μL/min/mg proteins |  |  | 
N#Cc1ccc(C2(c3n[nH]c4nc(N5CCC6(CC5)Cc5ccccc5[C@H]6N)[nH]c(=O)c34)CC2)cc1 [Example 237, (S)-4-(1-(6-(1-amino-1,3-dihydrospiro[indene-2,4′-piperidin]-1′-yl)-4-oxo-4,5-dihydro-1H-pyrazolo[3,4-d]pyrimidin-3-yl)cyclopropyl)benzonitrile] | ≤ 0.02 µM |  |  |  | ≤ 0.02 µM
N[C@@H]1c2ccccc2CC12CCN(c1nc3[nH]nc(C4(c5csnn5)CC4)c3c(=O)[nH]1)CC2 [Example 240, (S)-3-(1-(1,2,3-thiadiazol-4-yl)cyclopropyl)-6-(1-amino-1,3-dihydrospiro[indene-2,4′-piperidin]-1′-yl)-1,5-dihydro-4H-pyrazolo[3,4-d]pyrimidin-4-one] | ≤ 0.02 µM | 15.0 μL/min/mg proteins |  |  | ≤ 0.02 µM
